From the NIST ThermoML archive (doi:10.1021/acs.jced.8b00008)

Assay: xn = mol fraction of the nth substance listed
Details: for viscosity / speed of sound / mass density: 102 kPa, Liquid; for viscosity: Concentric cylinders viscometry; for speed of sound: Single path-length method; for mass density: Vibrating tube method; for surface tension liquid-gas: 296 K, Pendant drop shape

CCC1CCCCC1 [ethylcyclohexane] + CCCCCCCCCCCCCCCC
Details | mass density [kg/m3] | speed of sound [m/s] | viscosity [mPa·s]
293.15 K, x1 = 0.0997 | 773.92 | 1353.2 | 3.17
293.15 K, x1 = 0.1997 | 774.6 | 1348.2 | 2.87
293.15 K, x1 = 0.3 | 775.39 | 1343.1 | 2.57
293.15 K, x1 = 0.4 | 776.26 | 1337.8 | 2.26
293.15 K, x1 = 0.4999 | 777.42 | 1331.4 | 1.99
293.15 K, x1 = 0.55 | 778.05 | 1328.1 | 1.89
293.15 K, x1 = 0.6 | 778.71 | 1325.3 | 1.73
293.15 K, x1 = 0.7001 | 780.35 | 1317.5 | 1.48
293.15 K, x1 = 0.8003 | 782.34 | 1309.8 | 1.25
293.15 K, x1 = 0.9 | 784.8 | 1301.6 | 1.04
303.15 K, x1 = 0.0997 | 766.96 | 1315.5 | 2.54
303.15 K, x1 = 0.1997 | 767.62 | 1310.3 | 2.33
303.15 K, x1 = 0.3 | 768.36 | 1305.1 | 2.1
303.15 K, x1 = 0.4 | 769.18 | 1299.6 | 1.87
303.15 K, x1 = 0.4999 | 770.25 | 1292.9 | 1.67
303.15 K, x1 = 0.55 | 770.84 | 1289.4 | 1.58
303.15 K, x1 = 0.6 | 771.45 | 1286.4 | 1.46
303.15 K, x1 = 0.7001 | 772.96 | 1277.9 | 1.27
303.15 K, x1 = 0.8003 | 774.78 | 1269.5 | 1.07
303.15 K, x1 = 0.9 | 777.02 | 1260.2 | 0.896
313.15 K, x1 = 0.0997 | 760.01 | 1278.6 | 2.07
313.15 K, x1 = 0.1997 | 760.63 | 1273.4 | 1.9
313.15 K, x1 = 0.3 | 761.32 | 1268 | 1.74
313.15 K, x1 = 0.4 | 762.08 | 1262.2 | 1.56
313.15 K, x1 = 0.4999 | 763.06 | 1255.2 | 1.4
313.15 K, x1 = 0.55 | 763.61 | 1251.5 | 1.34
313.15 K, x1 = 0.6 | 764.16 | 1248.3 | 1.24
313.15 K, x1 = 0.7001 | 765.54 | 1239.2 | 1.08
313.15 K, x1 = 0.8003 | 767.19 | 1230 | 0.93
313.15 K, x1 = 0.9 | 769.2 | 1219.7 | 0.782
323.15 K, x1 = 0.0997 | 753.07 | 1242.7 | 1.73
323.15 K, x1 = 0.1997 | 753.64 | 1237.2 | 1.595
323.15 K, x1 = 0.3 | 754.28 | 1231.6 | 1.46
323.15 K, x1 = 0.4 | 754.97 | 1225.6 | 1.34
323.15 K, x1 = 0.4999 | 755.86 | 1218.3 | 1.21
323.15 K, x1 = 0.55 | 756.35 | 1214.3 | 1.15
323.15 K, x1 = 0.6 | 756.84 | 1211 | 1.09
323.15 K, x1 = 0.7001 | 758.08 | 1201.2 | 0.948
323.15 K, x1 = 0.8003 | 759.55 | 1191.3 | 0.822
323.15 K, x1 = 0.9 | 761.34 | 1180 | 0.693
333.15 K, x1 = 0.0997 | 746.13 | 1207.7 | 1.46
333.15 K, x1 = 0.1997 | 746.63 | 1202.1 | 1.355
333.15 K, x1 = 0.3 | 747.21 | 1196.2 | 1.25
333.15 K, x1 = 0.4 | 747.82 | 1189.9 | 1.16
333.15 K, x1 = 0.4999 | 748.62 | 1182.3 | 1.03
333.15 K, x1 = 0.55 | 749.06 | 1178 | 0.99
333.15 K, x1 = 0.6 | 749.49 | 1174.6 | 0.937
333.15 K, x1 = 0.7001 | 750.57 | 1164.1 | 0.821
333.15 K, x1 = 0.8003 | 751.86 | 1153.4 | 0.716
333.15 K, x1 = 0.9 | 753.41 | 1141.2 | 0.607

Details | surface tension liquid-gas [mN/m]
x1 = 0.0997 | 26.8
x1 = 0.1997 | 26.7
x1 = 0.3 | 26.4
x1 = 0.4 | 26.2
x1 = 0.4999 | 26.3
x1 = 0.55 | 26.2
x1 = 0.6 | 26
x1 = 0.7001 | 25.9
x1 = 0.8003 | 25.7
x1 = 0.9 | 25.4
